According to article PMC5908784, “Extracellular loops 2 and 3 of the calcitonin receptor selectively modify agonist binding and efficacy” (Biochemical Pharmacology, 2018):
Substitutions are numbered along the chain they refer to. Where a SMILES comes first, the peptide text is derived from it. Bridges are numbered along the chain shown (N, C = ends).

Experiments:
Experiment in all cases: Heterologous whole cell competition binding
Conditions in all cases: heterologous competition of 125I-sCT(8-32), whole cells, mean ± S.E.M., SEM
hCTR F285A = target: T1, hCTR F285A (Homo sapiens, UniProt P30988, F285A)
T1 construct: expressed in transfected cells
T1 sequence (P30988 25-474 F285A): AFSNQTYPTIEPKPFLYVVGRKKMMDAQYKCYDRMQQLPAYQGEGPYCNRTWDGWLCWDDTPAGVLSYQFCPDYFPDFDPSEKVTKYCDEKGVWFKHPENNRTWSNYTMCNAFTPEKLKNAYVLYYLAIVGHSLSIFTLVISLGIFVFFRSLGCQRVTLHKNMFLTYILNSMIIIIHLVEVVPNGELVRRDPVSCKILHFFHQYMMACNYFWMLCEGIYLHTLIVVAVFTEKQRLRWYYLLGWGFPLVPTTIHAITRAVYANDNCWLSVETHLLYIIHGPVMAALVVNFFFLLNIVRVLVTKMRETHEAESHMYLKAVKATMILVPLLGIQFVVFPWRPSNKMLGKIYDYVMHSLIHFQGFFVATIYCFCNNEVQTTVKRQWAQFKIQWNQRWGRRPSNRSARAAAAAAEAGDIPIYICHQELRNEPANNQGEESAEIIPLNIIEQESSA
How it was run: (§1)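 Steps: overnight co-incubation of cells, tracer and test ligand; washout of unbound label; gamma counting; Cheng-Prusoff conversion to pKi.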

hCTR I279A = target: T2, hCTR I279A (Homo sapiens, UniProt P30988, I279A)
T2 construct: expressed in transfected cells
T2 sequence (P30988 25-474 I279A): T1 sequence (P30988 25-474 F285A) with I255A, A261F
How it was run: as §1

hCTR R362A = target: T3, hCTR R362A (Homo sapiens, UniProt P30988, R362A)
T3 construct: expressed in transfected cells
T3 sequence (P30988 25-474 R362A): T1 sequence (P30988 25-474 F285A) with A261F, R338A
How it was run: as §1

hCTR S292A = target: T4, hCTR S292A (Homo sapiens, UniProt P30988, S292A)
T4 construct: expressed in transfected cells
T4 sequence (P30988 25-474 S292A): T1 sequence (P30988 25-474 F285A) with A261F, S268A
How it was run: as §1

hCTR V357A = target: T5, hCTR V357A (Homo sapiens, UniProt P30988, V357A)
T5 construct: c-Myc (N); expressed in transfected cells
T5 sequence (P30988 25-474 V357A): T1 sequence (P30988 25-474 F285A) with A261F, V333A
How it was run: as §1

- Ki (hCTR F285A): 12 nM
- Ki (hCTR I279A): 14.8 nM
- Ki (hCTR R362A): 46.8 nM
- Ki (hCTR S292A): 2.88 nM
- Ki (hCTR V357A): 12.9 nM
SMILES: CSCC[C@H](NC(=O)CNC(=O)[C@H](CO)NC(=O)[C@H](Cc1ccccc1)NC(=O)[C@H](CCCNC(=N)N)NC(=O)[C@H](Cc1c[nH]cn1)NC(=O)[C@H](Cc1ccccc1)NC(=O)[C@H](CC(N)=O)NC(=O)[C@H](CC(N)=O)NC(=O)[C@H](CC(C)C)NC(=O)[C@H](CC(N)=O)NC(=O)[C@H](CCCNC(=N)N)NC(=O)[C@H](Cc1c[nH]c2ccccc12)NC(=O)[C@H](Cc1ccc(O)cc1)NC(=O)[C@H](C)NC(=O)[C@H](CO)NC(=O)[C@H](CC(C)C)NC(=O)[C@@H](NC(=O)[C@@H]1CSSC[C@H](N)C(=O)N[C@@H](CO)C(=O)N[C@@H](CC(N)=O)C(=O)N[C@@H](CC(C)C)C(=O)N[C@@H](CO)C(=O)N[C@@H]([C@@H](C)O)C(=O)N1)C(C)C)C(=O)NCC(=O)N[C@@H](Cc1ccccc1)C(=O)NCC(=O)N1CCC[C@H]1C(=O)N[C@@H](CCC(=O)O)C(=O)N[C@H](C(=O)N1CCC[C@H]1C(N)=O)[C@@H](C)O [pCT] (H-CSNLSTCVLSAYWRNLNNFHRFSGMGFGPETP-NH2; disulfide 1-7)
